Data reported in US20220241249A1, “PHARMACEUTICAL COMPOSITION AND KIT CONTAINING NOVEL PENAM DERIVATIVE OR SALT THEREOF AND ONE OR MORE COMPOUNDS SELECTED FROM beta-LACTAMASE INHIBITORY COMPOUND AND ANTIBACTERIAL COMPOUND OR SALTS THEREOF” (priority 2019, published 2022).
Like-named read-outs stand apart in the source and are kept apart here. One block for each compound: values may come before it.

Legend:
Assay in all cases: MIC of test compound alone or with β-lactamase inhibitor at 4 μg/mL
Assay type in all cases: cell-based
[1] = test system: Escherichia coli TK-3113 strain producing IMP-8 (strain D)
Protocol: (§1) By using a broth microdilution method, the combinational effect of a test compound and a β-lactamase inhibitor was evaluated.
(§2) The evaluation test for antibacterial activity was performed in the same manner as in Test Example 1.
Escherichia coli TK-3113 strain producing IMP-8 (hereinafter, called strain D),
(§3) An antibacterial activity evaluation test was performed in the same manner as in Test Example 6.
(§4) As the bacterial strain, the strains B, C, and D producing β-lactamase and a Klebsiella pneumoniae Y-1069 strain (hereinafter, called strain F) producing OXA-48 and CTX-M-15 were used.

[2] = test system: Escherichia coli TK-1747 strain producing CTX-M-15 (strain A)
Protocol: as §1, §2
Escherichia coli TK-1747 strain producing CTX-M-15 (hereinafter, called strain A),

[3] = test system: Klebsiella pneumoniae Y-1133 strain producing NDM-1, OXA-48, and CTX-M-15 (strain C)
Protocol: as §1, §2
Klebsiella pneumoniae Y-1133 strain producing NDM-1, OXA-48, and CTX-M-15 (hereinafter, called strain C),
as §3, §4

[4] = test system: Klebsiella pneumoniae Y-1020 strain producing KPC-3 and SHV-12 (strain B); settings: for MIC: Strain B; for antibacterial activity in combination with a β-lactamase inhibitor versus without: for all the bacterial strains (strains A to E), summary of Tables 43 to 47
Protocol: as §1, §2

[5] = test system: Escherichia coli TK-1765 strain producing CMY-2 (strain E)
Protocol: as §1, §2
Escherichia coli TK-1765 strain producing CMY-2 (hereinafter, called strain E)

[6] = test compound alone (β-lactamase inhibitor N/A)

SMILES: CC(C)(O/N=C(\C(=O)N[C@@H]1C(=O)N2C(C(=O)[O-])=C(C[n+]3ccccc3)CS[C@H]12)c1csc(N)n1)C(=O)O [CAZ, ceftazidime hydrate, reference compound]
MIC ([1]; Escherichia coli, AVI added at 4 μg/mL): > 128 µg/mL
MIC ([1]; Escherichia coli, test compound alone (β-lactamase inhibitor N/A)): > 128 µg/mL

MIC ([2]; Escherichia coli, test compound alone (β-lactamase inhibitor N/A), read-out: MIC): > 128 µg/mL
SMILES: CO/N=C(\C(=O)N[C@@H]1C(=O)N2C(C(=O)O)=C(COC(C)=O)CS[C@H]12)c1csc(N)n1 [CTX, cefotaxime sodium, reference compound]

SMILES: CC(C)(O/N=C(\C(=O)N[C@@H]1C(=O)N2C[C@@](C(=O)O)(N3CCN(NC(=O)C(=O)c4ccc(O)c(O)c4Cl)C3=O)S[C@H]12)c1nc(N)sc1Cl)C(=O)O [Compound D]
MIC ([3]; AVI added at 4 μg/mL): 0.12 µg/mL
MIC ([3]; NAC added at 4 μg/mL): <0.015 µg/mL
MIC ([3]; ZID added at 4 μg/mL): <0.015 µg/mL
MIC [3, 6]: 0.5 µg/mL
MIC ([4]; AVI added at 4 μg/mL): 0.25 µg/mL
MIC ([4]; NAC added at 4 μg/mL): <0.015 µg/mL
MIC ([4]; ZID added at 4 μg/mL): <0.015 µg/mL
MIC [4, 6]: 2 µg/mL
antibacterial activity in combination with a β-lactamase inhibitor versus without [4]: higher antibacterial activity
MIC ([1]; AVI added at 4 μg/mL): 0.5 µg/mL
MIC ([1]; NAC added at 4 μg/mL): 0.06 µg/mL
MIC ([1]; ZID added at 4 μg/mL): 0.03 µg/mL
MIC [1, 6]: 1 µg/mL
MIC [5, 6]: 0.5 µg/mL
MIC ([5]; with AVI at 4 μg/mL): 0.03 µg/mL
MIC ([5]; with CVA at 4 μg/mL): 0.25 µg/mL
MIC ([5]; with SBT at 4 μg/mL): 0.25 µg/mL
MIC ([5]; with TAZ at 4 μg/mL): 0.06 µg/mL
MIC ([5]; with VAB at 4 μg/mL): 0.12 µg/mL

SMILES: Nc1nc(/C(=N/OC2(C(=O)O)CC2)C(=O)N[C@@H]2C(=O)N3C[C@@](C(=O)O)(N4CCN(NC(=O)C(=O)c5ccc(O)c(O)c5Cl)C4=O)S[C@H]23)cs1 [Compound E]
MIC ([3]; AVI added at 4 μg/mL): 0.12 µg/mL
MIC ([3]; NAC added at 4 μg/mL): <0.015 µg/mL
MIC ([3]; ZID added at 4 μg/mL): <0.015 µg/mL
MIC [3, 6]: 1 µg/mL
MIC ([4]; AVI added at 4 μg/mL): 0.25 µg/mL
MIC ([4]; NAC added at 4 μg/mL): <0.015 µg/mL
MIC ([4]; VAB added at 4 μg/mL): 1 µg/mL
MIC ([4]; ZID added at 4 μg/mL): <0.015 µg/mL
MIC [4, 6]: 4 µg/mL
antibacterial activity in combination with a β-lactamase inhibitor versus without [4]: higher antibacterial activity
MIC ([2]; AVI added at 4 μg/mL): <0.015 µg/mL
MIC ([2]; CVA added at 4 μg/mL): <0.015 µg/mL
MIC ([2]; NAC added at 4 μg/mL): <0.015 µg/mL
MIC ([2]; SBT added at 4 μg/mL): <0.015 µg/mL
MIC ([2]; TAZ added at 4 μg/mL): <0.015 µg/mL
MIC ([2]; ZID added at 4 μg/mL): <0.015 µg/mL
MIC [2, 6]: 0.06 µg/mL
MIC ([1]; AVI added at 4 μg/mL): 0.12 µg/mL
MIC ([1]; NAC added at 4 μg/mL): <0.015 µg/mL
MIC ([1]; ZID added at 4 μg/mL): <0.015 µg/mL
MIC [1, 6]: 0.25 µg/mL
MIC [5, 6]: 1 µg/mL
MIC ([5]; with AVI at 4 μg/mL): 0.06 µg/mL
MIC ([5]; with SBT at 4 μg/mL): 0.5 µg/mL
MIC ([5]; with TAZ at 4 μg/mL): 0.25 µg/mL
MIC ([5]; with VAB at 4 μg/mL): 0.12 µg/mL
